Laboratory results reported in US20230122967A1, “NOVEL COMPOUNDS AS INHIBITORS OF PCSK9” (SHENGKE PHARMACEUTICALS (JIANGSU) LTD., priority 2020, published 2023).

Assays:
Assay type in all cases: cell-based
[1] = system: HepG2 cells; assay: Cell viability assay (HepG2 Survival assay, CellTiter-Glo); conditions: 24 hr, cellular ATP levels
Method: (§1) HepG2 cells (ATCC, Cat.: HB-8065) were maintained in Growth medium-Eagle's Minimum Essential Medium (Corning, 10-010-CVR), 10% FBS (Gibco, 10099-141), Penicillin (100 units/mL), Streptomycin ([…]). HepG2 cells were incubated at 37° C., 5% CO2. HepG2 cells were plated in black clear bottom 96-well plates (Corning, 3063) at 40,000 cells/well in 100 μL of growth media. After an overnight incubation, the culture media were changed to serum-free OptiMEM media (Gibco, 31985-062), 90 μL/well. Vehicle, PF-06446846 hydrochloride, berberine, or test compound was added to the culture media, 10 μL/well. After 24 hr cellular ATP levels were measured using CellTiter-Glo® 2.0 Assay (Promega, G9242).

[2] = system: PCSK9; assay: PCSK9 ELISA on HepG2 culture medium; conditions: HepG2 cells, 24 hr
Method: as §1, with “flat” for “black clear”, “3599)” for “3063)”, “medium was harvested, and 10 μL of the medium” for “cellular ATP levels”, “used for the PCSK9 ELISA (R&D Systems, SPC900).” for “measured using CellTiter-Glo® 2.0 Assay (Promega, G9242).”

[3] = system: PCSK9 mRNA; assay: RT-Q-PCR analysis of PCSK9 mRNA in HepG2 cells; conditions: Homo sapiens, 24 h, normalized to GAPDH, read-out: HepG2 Q-PCR PCSK9 mRNA level decrease (10 μM)
Method: HepG2 cells (ATCC, Cat.: HB-8065) were maintained in Growth medium-Eagle's Minimum Essential Medium (Corning, 10-010-CVR), 10% FBS (Gibco, 10099-141), Penicillin (100 units/mL), Streptomycin ([…]). HepG2 cells were incubated at 37° C., 5% CO2.
Cells were cultured in growth medium as described above and treated with the vehicle, Berberine or test compound for 24 h. The RNA was extracted using the Total RNA mini Kit (Tiangen, Beijing, China) according to the manufacturer's instructions. Reverse transcription was carried out using the High-Capacity cDNA reverse transcription kit (Thermo Fisher Scientific). Quantitative real-time PCR was performed using a reaction mixture containing cDNA, specific primers [PCSK9, 5′-[…]-3′ (forward) and 5′-[…]-3′ (reverse); GAPDH, 5′-[…]-3′ (forward) and 5′-[…]-3′ (reverse)] and Maxima SYBR Green/ROX qPCR Master Mix (Thermo Fisher Scientific). PCR amplification was carried out in a Real-Time PCR System. The real-time PCR conditions were 37° C. 10 min; 95° C. 10 min; 95° C. 15 s, 60° C. 30 s, 72° C. 30 s, 40 cycle. The amount of % RNA was normalized to the GAPDH level in the same samples.

[4] = system: HepG2 cells; assay: Measurement of Dil-LDL uptake in HepG2 cells; conditions: Homo sapiens, 24 h, 10 μM for 20 h, then 20 μg/mL Dil-LDL 4 h, read-out: LDL uptake 10 μM (fold of vehicle)
Method: HepG2 cells were maintained in MEM supplemented with 10% FBS. The cells were seeded in 96 well black plates at a density of 1×10^4 cells per well and grown to 70-80% confluence. Afterwards, cells were changed to serum-free Opti-MEM for 1 h and followed by incubation with 10 μM Berberine or compounds of the present disclosure for 20 h. Then, 20 μg/mL Dil-LDL was added and incubated at 37° C. in the dark for additional 4 h. Cells were extensively washed three times with PBS, and LDL uptake was determined on a fluorescence plate reader at an excitation wavelength of 520 nm and emission wavelength of 580 nm.

## O=C(CN(CC(=O)Nc1ccc(Oc2ccc(C(F)(F)F)cc2)cc1)C(=O)c1cc2cccc(F)c2[nH]1)NCc1ccccc1 [Compound 201-205]
[1]
  HepG2 Survival assay (10 μM): 90%
[2]
  HepG2 PCSK9 ELISA (10 μM) % inhibition: 85%
[3]
  inhibition at 10 µM: 92%
[4]
  fold induction at 10 µM: 1.1

## CN(C(=O)CN(CC(=O)Nc1ccc(Oc2ccccc2)cc1)C(=O)c1ccc(C(F)(F)F)o1)C1Cc2ccccc2C1 [Compound 201-110]
[1]
  HepG2 Survival assay (10 μM): 100%
[2]
  HepG2 PCSK9 ELISA (10 μM) % inhibition: 84%
[3]
  inhibition at 10 µM: 88%
[4]
  fold induction at 10 µM: 4.76

## CN(Cc1ccccc1F)C(=O)CN(CC(=O)Nc1ccc(Oc2ccccc2)cc1)C(=O)c1cc2cccc(F)c2[nH]1 [Compound 201-74]
[1]
  HepG2 Survival assay (10 μM): 96%
[2]
  HepG2 PCSK9 ELISA (10 μM) % inhibition: 77%
[3]
  inhibition at 10 µM: 88%
[4]
  fold induction at 10 µM: 3.92

## CC(C)c1ccc(Oc2ccc(NC(=O)CN(CC(=O)NCc3ccccc3)C(=O)c3ccc(C(F)(F)F)o3)cc2)cc1 [Compound 201-245]
[1]
  HepG2 Survival assay (10 μM): 101%
[2]
  HepG2 PCSK9 ELISA (10 μM) % inhibition: 76%
[4]
  fold induction at 10 µM: 1.11

## CC(C)c1ccc(Oc2ccc(NC(=O)CN(CC(=O)Nc3ccccc3)C(=O)c3cc4cccc(C#N)c4[nH]3)cc2)cc1 [Compound 201-269]
[1]
  HepG2 Survival assay (10 μM): 106%
[2]
  HepG2 PCSK9 ELISA (10 μM) % inhibition: 53%
[3]
  inhibition at 10 µM: 87%
[4]
  fold induction at 10 µM: 1.34

## CN(C(=O)CN(CC(=O)Nc1ccc(Oc2ccc(F)c(F)c2)cc1)C(=O)c1ccco1)C1Cc2ccccc2C1 [Compound 201-134]
[1]
  HepG2 Survival assay (10 μM): 100%
[2]
  HepG2 PCSK9 ELISA (10 μM) % inhibition: 90%
[3]
  inhibition at 10 µM: 92%
[4]
  fold induction at 10 µM: 5.3

## CN(Cc1ccccc1F)C(=O)CN(CC(=O)Nc1ccc(Oc2ccccc2)cc1)C(=O)c1ccc(C(F)(F)F)o1 [Compound 201-109]
[1]
  HepG2 Survival assay (10 μM): 100%
[2]
  HepG2 PCSK9 ELISA (10 μM) % inhibition: 92%
[3]
  inhibition at 10 µM: 90%
[4]
  fold induction at 10 µM: 4.69

## CN(C(=O)CN(CC(=O)Nc1ccc(Oc2ccc(F)cc2)cc1)C(=O)c1cc2cccc(F)c2[nH]1)C1Cc2ccccc2C1 [Compound 201-29]
[1]
  HepG2 Survival assay (10 μM): 100%
[2]
  HepG2 PCSK9 ELISA (10 μM) % inhibition: 61%
[3]
  inhibition at 10 µM: 88.5%
[4]
  fold induction at 10 µM: 3.07

## COc1ccc2cc3[n+](cc2c1OC)CCc1cc2c(cc1-3)OCO2 [Berberine, reference compound]
[2]
  HepG2 PCSK9 ELISA (10 μM) % inhibition: 52%
[3]
  inhibition at 10 µM: 35%
[4]
  fold induction at 10 µM: 2.54

## CC(C)c1ccc(Oc2ccc(NC(=O)CN(CC(=O)NCc3ccccc3)C(=O)c3cc4cccc(F)c4[nH]3)cc2)cc1 [Compound 201-242]
[1]
  HepG2 Survival assay (10 μM): 115%
[2]
  HepG2 PCSK9 ELISA (10 μM) % inhibition: 74%
[3]
  inhibition at 10 µM: 77%
[4]
  fold induction at 10 µM: 2.43

## CN(C(=O)CN(CC(=O)Nc1ccc(Oc2ccccc2)cc1)C(=O)c1cc2cccc(F)c2[nH]1)C1Cc2ccccc2C1 [Compound 201-31]
[1]
  HepG2 Survival assay (10 μM): 100%
[2]
  HepG2 PCSK9 ELISA (10 μM) % inhibition: 48%
[3]
  inhibition at 10 µM: 73%
[4]
  fold induction at 10 µM: 2.07

## COc1ccc(Oc2ccc(NC(=O)CN(CC(=O)Nc3ccccc3)C(=O)c3cc4cccc(F)c4[nH]3)cc2)cc1 [Compound 201-256]
[1]
  HepG2 Survival assay (10 μM): 109%
[2]
  HepG2 PCSK9 ELISA (10 μM) % inhibition: 78%
[3]
  inhibition at 10 µM: 75%
[4]
  fold induction at 10 µM: 2.43

## CN(C(=O)CN(CC(=O)Nc1ccc(Oc2ccc(F)c(F)c2)cc1)C(=O)c1cc2cccc(F)c2[nH]1)C1Cc2ccccc2C1 [Compound 201-80]
[1]
  HepG2 Survival assay (10 μM): 100%
[2]
  HepG2 PCSK9 ELISA (10 μM) % inhibition: 80%
[3]
  inhibition at 10 µM: 88%
[4]
  fold induction at 10 µM: 3.07

## CN(Cc1ccccc1F)C(=O)CN(CC(=O)Nc1ccc(Oc2ccc(F)c(F)c2)cc1)C(=O)c1ccc(C(F)(F)F)o1 [Compound 201-115]
[1]
  HepG2 Survival assay (10 μM): 100%
[2]
  HepG2 PCSK9 ELISA (10 μM) % inhibition: 90%
[3]
  inhibition at 10 µM: 90%
[4]
  fold induction at 10 µM: 4.07

## CC(C)c1ccc(Oc2ccc(NC(=O)CN(CC(=O)NCc3ccccc3)C(=O)c3cc4cccc(C#N)c4[nH]3)cc2)cc1 [Compound 201-253]
[1]
  HepG2 Survival assay (10 μM): 110%
[2]
  HepG2 PCSK9 ELISA (10 μM) % inhibition: 61%
[3]
  inhibition at 10 µM: 59%
[4]
  fold induction at 10 µM: 1.77

## CN(C(=O)CN(CC(=O)Nc1ccc(Oc2ccc(F)c(F)c2)cc1)C(=O)c1ccc(C(F)(F)F)o1)C1Cc2ccccc2C1 [Compound 201-116]
[1]
  HepG2 Survival assay (10 μM): 100%
[2]
  HepG2 PCSK9 ELISA (10 μM) % inhibition: 81%
[3]
  inhibition at 10 µM: 88%
[4]
  fold induction at 10 µM: 3.76

## CN(C(=O)CN(CC(=O)Nc1ccc(Oc2ccc(F)cc2)cc1)C(=O)c1cc2cccc(F)c2[nH]1)C1CCCC1 [Compound 201-65]
[1]
  HepG2 Survival assay (10 μM): 100%
[2]
  HepG2 PCSK9 ELISA (10 μM) % inhibition: 85%
[3]
  inhibition at 10 µM: 87%
[4]
  fold induction at 10 µM: 1.84

## CN(C(=O)CN(CC(=O)Nc1ccc(Oc2ccc(F)c(F)c2)cc1)C(=O)c1cc2cccc(F)c2[nH]1)C1CCCC1 [Compound 201-75]
[1]
  HepG2 Survival assay (10 μM): 100%
[2]
  HepG2 PCSK9 ELISA (10 μM) % inhibition: 80%
[3]
  inhibition at 10 µM: 90%
[4]
  fold induction at 10 µM: 2.92

## CN(C(=O)CN(CC(=O)Nc1ccc(Oc2ccc(F)cc2)cc1)C(=O)c1ccc(C(F)(F)F)o1)C1Cc2ccccc2C1 [Compound 201-104]
[1]
  HepG2 Survival assay (10 μM): 100%
[2]
  HepG2 PCSK9 ELISA (10 μM) % inhibition: 83%
[3]
  inhibition at 10 µM: 86%
[4]
  fold induction at 10 µM: 4.15

## CC(C)c1ccc(Oc2ccc(NC(=O)CN(CC(=O)NC3CCCC3)C(=O)c3cc4cccc(F)c4[nH]3)cc2)cc1 [Compound 201-227]
[1]
  HepG2 Survival assay (10 μM): 112%
[2]
  HepG2 PCSK9 ELISA (10 μM) % inhibition: 71%
[3]
  inhibition at 10 µM: 56%
[4]
  fold induction at 10 µM: 1.37

## CN(C(=O)CN(CC(=O)Nc1ccc(Oc2ccccc2)cc1)C(=O)c1cc2cccc(F)c2[nH]1)C1CCCC1 [Compound 201-70]
[1]
  HepG2 Survival assay (10 μM): 100%
[2]
  HepG2 PCSK9 ELISA (10 μM) % inhibition: 76%
[3]
  inhibition at 10 µM: 85%
[4]
  fold induction at 10 µM: 1.69

## N#Cc1cccc2cc(C(=O)N(CC(=O)Nc3ccccc3)CC(=O)Nc3ccc(Oc4ccc(C(F)(F)F)cc4)cc3)[nH]c12 [Compound 201-267]
[1]
  HepG2 Survival assay (10 μM): 103%
[2]
  HepG2 PCSK9 ELISA (10 μM) % inhibition: 56%
[3]
  inhibition at 10 µM: 79%
[4]
  fold induction at 10 µM: 1.34

## CC(C)c1ccc(Oc2ccc(NC(=O)CN(CC(=O)Nc3ccccc3)C(=O)c3ccc(C(F)(F)F)[nH]3)cc2)cc1 [Compound 201-265]
[1]
  HepG2 Survival assay (10 μM): 93%
[2]
  HepG2 PCSK9 ELISA (10 μM) % inhibition: 71%
[3]
  inhibition at 10 µM: 76%
[4]
  fold induction at 10 µM: 1.57
